Data as given in patent US20230134869A1, “CRYSTAL FORM OF FREE ALKALI OF NITROGEN-CONTAINING AROMATIC DERIVATIVES” (Shanghai Hansoh Biomedical Co., Ltd., priority 2020, published 2023).
In brackets after ≈: the same amount, converted by molar mass.

Tests used:
[1] = Solid stability experiment: high temperature, high humidity (crystal form A of the Example 35 compound); format: physicochemical; conditions: 60° C.; room temperature/92.5% RH; 50° C. and 75% RH; 5, 10, 20 and 30 days
Method: (§1) The content was determined by HPLC using the external standard method. The related substance change was calculated by chromatographic peak area normalization method.

[2] = Solubility experiment in different media (crystal form A of the Example 35 compound); format: physicochemical; conditions: 37° C., 2 hours, buffers pH 1 to 8, water, FaSGF, FaSSIF, FeSSIF
[3] = Determination of stable crystal form by comparing DSC spectrums (Example 35 compound); format: physicochemical
Description: The objective is to find stable crystal forms of the compound (S)-8-(6-amino-5-((2-amino-3-chloropyridin-4-yl)thio)pyrazin-2-yl)-2-cyclopropyl-8-azaspiro[4.5]dec-2-en-1-amine by polymorphic screening.
Three crystal forms of (S)-8-(6-amino-5-((2-amino-3-chloropyridin-4-yl)thio)pyrazin-2-yl)-2-cyclopropyl-8-azaspiro[4.5]dec-2-en-1-amine, i.e., crystal forms A, B and C, were obtained by pulping, changing crystallization solvent and crystallization method.

[4] = Crystal transformation investigation: pressure (tabletting) and grinding; format: physicochemical; conditions: compressed into tablets; ground 15 minutes
Description: The tablets were mashed to powder and characterized by XRPD.

[5] = Hygroscopicity experiment (crystal form A of the Example 35 compound); format: physicochemical
[6] = Pharmacokinetics study in rats of crystal form A of the Example 35 compound, single oral administration; format: in vivo; conditions: SD rats, intragastric, 10 mg/kg
[7] = Tolerance assay in mice (body weight, abnormal responses); format: in vivo, Balb/c mice; conditions: oral 10 mg/kg QD
Method: (§2) Balb/c mice were used as test animals.
5 g of hydroxyethyl cellulose (HEC, CMC-Na, viscosity: 800-1200 Cps) was dissolved in 1000 mL of purified water, and 10 g of Tween 80 was added. The solution was mixed well to form a clear solution.
The solution was subjected to ultrasound for 10 minutes to obtain a colorless and clear solution with a concentration of 1 mg/mL.
After an overnight fast, Balb/c mice (3 male and 3 female) were administrated orally with the test compound at an administration dose of 10 mg/kg and an administration volume of 10 mL/kg.
The mice were weighed daily before and after administration, and abnormal responses were observed. The mice were fed 4 hours after administration.

[8] = Pharmacokinetics assay in mice; format: in vivo; conditions: Balb/c mice
Method: as §2
(§3) The solution was subjected to ultrasound to obtain a clear solution. […] The concentration was 0.2 mg/mL.
After an overnight fast, male Balb/c mice were administered intravenously with the test compounds at an administration dose of 1 mg/kg and an administration volume of 5 mL/kg.
(§4) Blood was taken before administration and at 0 minute, 5 minutes, 15 minutes, 0.5 hour, 1.0 hour, 2.0 hours, 4.0 hours, 8.0 hours and 24.0 hours after administration. The blood samples were stored in EDTA-2K tubes, and centrifuged for 6 minutes at 6000 rpm, at 4° C. to separate the blood plasma. The plasma samples were stored at −80° C. The mice were fed 4 hours after administration.

[9] = Pharmacokinetics assay in rats; format: in vivo; conditions: SD rats
Method: SD rats were used as test animals.
as §3
After an overnight fast, male SD rats (3 rats per group) were administered intravenously with the test compounds at an administration dose of 1 mg/kg and an administration volume of 5 mL/kg.
as §4, with “0.2 mL of blood” for “Blood”, “taken from jugular vein” for “taken”, “C.” for “C. The mice were fed 4 hours after administration.”

[10] = Solid stability experiment under light (amorphous form, crystal forms A and B of the Example 53 compound); format: physicochemical
Method: as §1

[11] = Hygroscopicity experiment (crystal form B of the Example 53 compound); format: physicochemical
Description: The hygroscopicity of crystal form B of the compound (S)-1′-(6-amino-5-((2-amino-3-chloropyridin-4-yl)thio)-3-fluoropyrazin-2-yl)-1,3-dihydrospiro[indene-2,4′-piperidin]-1-amine under different relative humidity conditions was investigated, so as to provide a basis for the crystal form screening and storage of the compound.
Crystal form B of (S)-1′-(6-amino-5-((2-amino-3-chloropyridin-4-yl)thio)-3-fluoropyrazin-2-yl)-1,3-dihydrospiro[indene-2,4′-piperidin]-1-amine was placed in saturated water vapor with different relative humidity to achieve dynamic equilibrium between the compound and water vapor, and the percentage of hygroscopic weight gain of the compound after the equilibrium was calculated.

[12] = Polymorphic screening and determination of stable crystal form (Example 53 compound), DSC comparison; format: physicochemical
Description: The objective is to find stable crystal forms of (S)-1′-(6-amino-5-((2-amino-3-chloropyridin-4-yl)thio)-3-fluoropyrazin-2-yl)-1,3-dihydrospiro[indene-2,4′-piperidin]-1-amine by polymorphic screening.
Organic solvents and water with a certain solubility was chosen to suspend (S)-1′-(6-amino-5-((2-amino-3-chloropyridin-4-yl)thio)-3-fluoropyrazin-2-yl)-1,3-dihydrospiro[indene-2,4′-piperidin]-1-amine in the solvent system, and the mixture was stirred and slurried at room temperature for one week, and then centrifuged. The supernatant was discarded, and the solid was dried under vacuum (−0.1 Mpa) at 40° C. overnight. The XRPD, DSC and TGA of the solid was determined and compared.
Five crystal forms of (S)-1′-(6-amino-5-((2-amino-3-chloropyridin-4-yl)thio)-3-fluoropyrazin-2-yl)-1,3-dihydrospiro[indene-2,4′-piperidin]-1-amine, i.e., crystal forms A, B, C, D and E, were obtained by pulping, changing crystallization solvent and crystallization method.

[13] = Solubility experiment in different media (crystal form B of the Example 53 compound); format: physicochemical; conditions: thermodynamic from solid, 37° C.
Method: The solubility of crystal form B of (S)-1′-(6-amino-5-((2-amino-3-chloropyridin-4-yl)thio)-3-fluoropyrazin-2-yl)-1,3-dihydrospiro[indene-2,4′-piperidin]-1-amine in media such as water, Simulated Gastric Fluid (SGF), Fasted State Simulated Intestinal Fluid (FaSSIF) and Fed State Simulated Intestinal Fluid (FeSSIF) was compared, so as to provide a basis for evaluating the druggability.
About 2 mg of crystal form B of (S)-1′-(6-amino-5-((2-amino-3-chloropyridin-4-yl)thio)-3-fluoropyrazin-2-yl)-1,3-dihydrospiro[indene-2,4′-piperidin]-1-amine was suspended in different media for 24 hours, respectively.

[14] = Light 5000 ± 500 lux (sealed), Day 0
[15] = Light 5000 ± 500 lux (sealed), Day 5
[16] = Light 5000 ± 500 lux (sealed), Day 10

Nc1nc(N2CCC3(CC=C(C4CC4)[C@H]3N)CC2)cnc1Sc1ccnc(N)c1Cl [(S)-8-(6-amino-5-((2-amino-3-chloropyridin-4-yl)thio)pyrazin-2-yl)-2-cyclopropyl-8-azaspiro[4.5]dec-2-en-1-amine]
Impurity increase [1]: less than 0.15% | Solubility compared in different media [2]: better solubility under acidic conditions | Thermodynamic stability by comparing DSC spectrums of crystal forms A, B and C [3]: better thermodynamic stability | Crystal transformation after tabletting and grinding (XRPD) [4]: didn't undergo crystal transformation | Crystal form (XRPD) after one cycle of humidification and dehumidification ([5]; 0 to 95% relative humidity): the crystal form didn't transform | Hygroscopic weight gain ([5]; RH 80%): about 0.544% | Hygroscopicity ([5]; RH 80%): slight hygroscopicity | Metabolic property (pharmacokinetics experiment in rats) [6]: good metabolic property

Nc1nc(N2CCC3(CC2)Cc2ccccc2[C@H]3N)c(F)nc1Sc1ccnc(N)c1Cl [Example 53, (S)-1′-(6-amino-5-((2-amino-3-chloropyridin-4-yl)thio)-3-fluoropyrazin-2-yl)-1,3-dihydrospiro[indene-2,4′-piperidin]-1-amine]
Body weight (Mean), Day 1 ([7]; female Balb/c mice): 22.07 g | Body weight (Mean), Day 16 ([7]; female Balb/c mice): 25.09 g | Body weight changes ΔW/W1 (Mean), Day 16 ([7]; female Balb/c mice): 13.80% | Body weight (Mean), Day 1 ([7]; male Balb/c mice): 23.01 g | Body weight (Mean), Day 16 ([7]; male Balb/c mice): 28.30 g | Body weight changes ΔW/W1 (Mean), Day 16 ([7]; male Balb/c mice): 23.25% | F [8]: 71% | F [9]: 118%

Nc1nc(N2CCC3(CC2)Cc2ccccc2[C@H]3N)c(F)nc1Sc1ccnc(N)c1Cl [amorphous form of (S)-1′-(6-amino-5-((2-amino-3-chloropyridi] [(S)-1′-(6-amino-5-((2-amino-3-chloropyridin-4-yl)thio)-3-fluoropyrazin-2-yl)-1,3-dihydrospiro[indene-2,4′-piperidin]-1-amine]
10-day total impurities gain ([10]; light 5000 lx±500 lx, 10 days): 19.34%

Nc1nc(N2CCC3(CC2)Cc2ccccc2[C@H]3N)c(F)nc1Sc1ccnc(N)c1Cl [crystal form B of (S)-1′-(6-amino-5-((2-amino-3-chloropyridi] [(S)-1′-(6-amino-5-((2-amino-3-chloropyridin-4-yl)thio)-3-fluoropyrazin-2-yl)-1,3-dihydrospiro[indene-2,4′-piperidin]-1-amine]
Content (HPLC) Day 0 [10, 14]: 98.34% | Total impurities [10, 14]: 1.66% | Content (HPLC) Day 5 [10, 15]: 97.28% | Total impurities [10, 15]: 2.72% | Total impurities gain ([10]; Light 5000 ± 500 lux (sealed), Day 5 vs Day 0): 1.06% | Content (HPLC) Day 10 [10, 16]: 96.46% | Total impurities [10, 16]: 3.54% | Total impurities gain ([10]; Light 5000 ± 500 lux (sealed), Day 10 vs Day 0): 1.88% | Crystal form (XRPD) after one cycle of humidification and dehumidification ([11]; 0 to 95% relative humidity): the crystal form didn't transform | Hygroscopic weight gain ([11]; RH 80%): about 1.639% | Hygroscopicity ([11]; RH 80%): slight hygroscopicity | Thermodynamic stability by comparing DSC spectrums of crystal forms A, B, C, D and E [12]: best thermodynamic stability among the five crystal forms

Nc1nc(N2CCC3(CC2)Cc2ccccc2[C@H]3N)c(F)nc1Sc1ccnc(N)c1Cl [(S)-1′-(6-amino-5-((2-amino-3-chloropyridin-4-yl)thio)-3-fluoropyrazin-2-yl)-1,3-dihydrospiro[indene-2,4′-piperidin]-1-amine]
solubility thermodynamic at 24 h ([13]; simulated gastric fluid, SGF): 2050 µg/mL (≈ 4340 µM) | solubility thermodynamic at 24 h ([13]; Fa (Fasted State Simulated Intestinal Fluid, FaSSIF)): 170 µg/mL (≈ 360 µM) | solubility thermodynamic at 24 h ([13]; Fe (Fed State Simulated Intestinal Fluid, FeSSIF)): 64 µg/mL (≈ 136 µM) | solubility thermodynamic at 24 h ([13]; water): 1 µg/mL (≈ 2.12 µM)
